According to the NIST ThermoML archive (doi:10.1021/je034223r):

Experiments:
[1] = 298.15 K; 101.33 kPa; Liquid; Vibrating tube method
[2] = molar heat capacity at constant pressure; settings: 298.15 K; 101.33 kPa; Liquid; Flow calorimetry
[3] = refractive index (Na D-line) (dimensionless); settings: 298.15 K; 101.33 kPa; Liquid; Standard Abbe refractometry
[4] = excess molar enthalpy (molar enthalpy of mixing); xn = mol fraction of the nth substance listed; settings: 298.15 K, 101.3 kPa, Liquid, Flow calorimetry
[5] = refractive index (Na D-line) (dimensionless); xn = mol fraction of the nth substance listed; settings: 298.15 K, 101.3 kPa, Liquid, refractometer
[6] = heat capacity at constant pressure per volume; xn = mol fraction of the nth substance listed; settings: 298.15 K, 101.3 kPa, Liquid, Flow calorimetry
[7] = xn = mol fraction of the nth substance listed; settings: 298.15 K, 101.3 kPa, Liquid, vibrating tube

C1COCO1 [1,3-dioxolane]
Settings | mass density [kg/m3] | molar heat capacity at constant pressure [J/K/mol] | refractive index
[1] | 1058.67 | – | –
[2] | – | 121.66 | –
[3] | – | – | 1.39797

C1COCO1 [1,3-dioxolane] + O=C1CCCCC1
[4]
Settings | excess molar enthalpy [kcal/mol]
x1 = 0.1 | 0.0153
x1 = 0.15 | 0.0214
x1 = 0.2 | 0.0265
x1 = 0.25 | 0.0309
x1 = 0.3 | 0.0348
x1 = 0.35 | 0.0382
x1 = 0.4 | 0.0399
x1 = 0.45 | 0.0409
x1 = 0.5 | 0.041
x1 = 0.55 | 0.0404
x1 = 0.6 | 0.039
x1 = 0.65 | 0.0369
x1 = 0.7 | 0.0341
x1 = 0.75 | 0.0305
x1 = 0.8 | 0.0261
x1 = 0.85 | 0.0208
x1 = 0.9 | 0.0148

CCCCCC(C)=O [2-heptanone] + C1COCO1
Settings | excess molar enthalpy [kcal/mol] | heat capacity [J/K/m3] | mass density [kg/m3] | refractive index
[4], x2 = 0.1 | 0.028 | – | – | –
[4], x2 = 0.15 | 0.041 | – | – | –
[4], x2 = 0.2 | 0.0538 | – | – | –
[4], x2 = 0.25 | 0.0658 | – | – | –
[4], x2 = 0.3 | 0.0764 | – | – | –
[4], x2 = 0.35 | 0.0857 | – | – | –
[4], x2 = 0.4 | 0.0936 | – | – | –
[4], x2 = 0.45 | 0.0993 | – | – | –
[4], x2 = 0.5 | 0.1031 | – | – | –
[4], x2 = 0.55 | 0.105 | – | – | –
[4], x2 = 0.6 | 0.104 | – | – | –
[4], x2 = 0.65 | 0.102 | – | – | –
[4], x2 = 0.7 | 0.0972 | – | – | –
[4], x2 = 0.75 | 0.0894 | – | – | –
[4], x2 = 0.8 | 0.0793 | – | – | –
[4], x2 = 0.85 | 0.066 | – | – | –
[4], x2 = 0.9 | 0.0486 | – | – | –
[5], x2 = 0.0796 | – | – | – | 1.4064
[5], x2 = 0.1592 | – | – | – | 1.40592
[5], x2 = 0.2381 | – | – | – | 1.40542
[5], x2 = 0.315 | – | – | – | 1.40489
[5], x2 = 0.3582 | – | – | – | 1.40459
[5], x2 = 0.3981 | – | – | – | 1.4043
[5], x2 = 0.437 | – | – | – | 1.404
[5], x2 = 0.4767 | – | – | – | 1.4037
[5], x2 = 0.5147 | – | – | – | 1.4034
[5], x2 = 0.5562 | – | – | – | 1.40305
[5], x2 = 0.5892 | – | – | – | 1.40276
[5], x2 = 0.6363 | – | – | – | 1.40234
[5], x2 = 0.6694 | – | – | – | 1.40202
[5], x2 = 0.7034 | – | – | – | 1.40169
[5], x2 = 0.7886 | – | – | – | 1.40078
[5], x2 = 0.8717 | – | – | – | 1.39979
[5], x2 = 0.9502 | – | – | – | 1.39873
[6], x2 = 0.0872 | – | 1721500 | – | –
[6], x2 = 0.1656 | – | 1720700 | – | –
[6], x2 = 0.2372 | – | 1720000 | – | –
[6], x2 = 0.3167 | – | 1719700 | – | –
[6], x2 = 0.3868 | – | 1719900 | – | –
[6], x2 = 0.4649 | – | 1720200 | – | –
[6], x2 = 0.541 | – | 1721000 | – | –
[6], x2 = 0.6252 | – | 1722500 | – | –
[6], x2 = 0.6995 | – | 1724400 | – | –
[6], x2 = 0.7807 | – | 1726700 | – | –
[6], x2 = 0.8584 | – | 1729700 | – | –
[7], x2 = 0.1058 | – | – | 824.42 | –
[7], x2 = 0.1274 | – | – | 827.37 | –
[7], x2 = 0.244 | – | – | 844.52 | –
[7], x2 = 0.3122 | – | – | 855.72 | –
[7], x2 = 0.3693 | – | – | 865.84 | –
[7], x2 = 0.3985 | – | – | 871.31 | –
[7], x2 = 0.4258 | – | – | 876.6 | –
[7], x2 = 0.4304 | – | – | 877.56 | –
[7], x2 = 0.4313 | – | – | 877.69 | –
[7], x2 = 0.4768 | – | – | 887.06 | –
[7], x2 = 0.5071 | – | – | 893.63 | –
[7], x2 = 0.5125 | – | – | 894.83 | –
[7], x2 = 0.5141 | – | – | 895.15 | –
[7], x2 = 0.536 | – | – | 900.1 | –
[7], x2 = 0.5433 | – | – | 901.8 | –
[7], x2 = 0.5928 | – | – | 913.69 | –
[7], x2 = 0.6302 | – | – | 923.33 | –
[7], x2 = 0.6308 | – | – | 923.51 | –
[7], x2 = 0.667 | – | – | 933.32 | –
[7], x2 = 0.7125 | – | – | 946.48 | –
[7], x2 = 0.785 | – | – | 969.65 | –
[7], x2 = 0.8627 | – | – | 997.8 | –
[7], x2 = 0.9533 | – | – | 1036.16 | –
